# Experimental data published in US20240239771A1, “BACTERIAL EFFLUX PUMP INHIBITORS” (priority 2020, published 2024).
# Counter-ions that a name gives are not always drawn. Like-named read-outs stand apart in the source and are kept apart here.
# What was measured:
# [1] = system: Pseudomonas aeruginosa ATCC 27853; assay: Standard EPI assay: MIC of test antibiotic in absence and presence of EPI; assay type: cell-based; conditions: for Enhanced Antibiotic's Activity (fold increase), Ceftazidime: ceftazidime with compound at 6.25 μg/mL, relative to MIC without EPI (2 μg/mL); for Enhanced Antibiotic's Activity (fold increase), Doxycycline: doxycycline with compound at 6.25 μg/mL, relative to MIC without EPI (32 μg/mL); for Enhanced Antibiotic's Activity (fold increase), Levofloxacin: levofloxacin with compound at 6.25 μg/mL, relative to MIC without EPI (1 μg/mL)
# Experimental: The EPI assay for the purposes of these studies represents a MIC assay in which the MIC of the antibiotic against the bacteria is tested in the presence of an experimental efflux pump inhibitor (EPI). The highest concentration of the EPI present in the assay typically is ½ of the intrinsic MIC of the compound. If the intrinsic MIC of the EPI is greater than 100 μg/mL, the EPI assay was tested with 50 μg/mL. Using serial dilutions of the EPI, its enhancement of antibiotic activity was then evaluated. The relative EPI activity was decided by comparing the MIC of the antibiotic in the presence of the EPI compound with the intrinsic MIC of the antibiotic alone.
# The impact of the EPIs on the MIC values of three test antibiotics (levofloxacin, ceftazidime and doxycycline) against P. aeruginosa ATCC 27853 were evaluated using our standard EPI assay. All three antibiotics levofloxacin, ceftazidime and doxycycline are known substrates of efflux pumps in P. aeruginosa, and are thus well-suited to be test antibiotics to assay for EPI activity.
# In our standard EPI assay, the MIC of the test antibiotic is determined in the absence and presence of sub-inhibitory concentrations of the EPI. […] The MIC of levofloxacin against P. aeruginosa ATCC 27853 in the absence of EPI is 1 μg/mL. […] Similarly, the MIC of ceftazidime against P. aeruginosa ATCC 27853 in the absence of EPI is 2 μg/mL. In the presence of 6.25 μg/mL of the Example 4, the MIC of ceftazidime was reduced to 0.5 μg/mL, a 4-fold reduction. […] For all the examples in Table 1, the potentiation activities are determined at 6.25 μg/mL.
# [2] = system: Pseudomonas aeruginosa ATCC 27853; assay: Intrinsic MIC assay (CLSI broth microdilution); assay type: cell-based
# Experimental: MIC assays were conducted in accordance with Clinical and Laboratory Standards Institute (CLSI) guidelines for broth microdilution. A 96-well plate containing cation-adjusted Mueller-Hinton (CAMH broth with 2-fold serial dilution of compounds was inoculated with log-phase bacterial at 5×10^5 CFU/mL. The final volume in each well was 100 μL. Each compound was tested in duplicate. The microtiter plates were incubated in an aerobic environment for 18 hours at 37° C. Then the bacterial growth was tested by reading the plate with a VersaMax plate reader (Molecular Devices, Inc.) at 600 nm. The MIC was defined as the lowest compound concentration that inhibited 90% of bacteria growth.
# The intrinsic MIC of the experimental EPIs was tested with the method described. The 2-fold serial dilution begins with 100 μg/mL of tested compound in the first column of the 96-well plates. The following Gram-negative bacterial strain was included in these assays: Pseudomonas aeruginosa ATCC 27853.
# [3] = ATCC27853, read-out: Intrinsic MIC of Compound
# [4] = ATCC27853, P. aeruginosa ATCC 27853, compound alone, read-out: Intrinsic MIC of Compound
Compound,"Enhanced Antibiotic's Activity (fold increase), Ceftazidime [1] [fold]","Enhanced Antibiotic's Activity (fold increase), Doxycycline [1] [fold]","Enhanced Antibiotic's Activity (fold increase), Levofloxacin [1]","MIC [2, 3] [µg/mL]","MIC [2, 4] [µg/mL]"
"NCCOC[C@H](N)CNC(=O)c1[nH]c2ccccc2c1-c1ccc(F)cc1 [Example 19, (R)—N-(2-amino-3-(2-aminoethoxy)propyl)-3-(4-fluorophenyl)-1H-indole-2-carboxamide hydrogen chloride salt]",2,16,16 fold,> 100,–
"N#Cc1ccc(-c2c(C(=O)NC[C@@H](N)COCCN)[nH]c3ccc(F)cc23)cc1 [Example 20, (R)—N-(2-amino-3-(2-aminoethoxy)propyl)-3-(4-cyanophenyl)-5-fluoro-1H-indole-2-carboxamide hydrogen chloride salt]",2,16,16 fold,> 100,–
"NCCOC[C@H](N)CNC(=O)c1[nH]c2ccccc2c1-c1ccccc1 [Example 21, (R)—N-(2-amino-3-(2-aminoethoxy)propyl)-3-phenyl-1H-indole-2-carboxamide hydrogen chloride salt]",1,16,4 fold,> 100,–
"NCCOC[C@H](N)CNC(=O)c1[nH]c2ccc(F)cc2c1C1CCCCC1 [Example 22, (R)—N-(2-amino-3-(2-aminoethoxy)propyl)-3-cyclohexyl-5-fluoro-1H-indole-2-carboxamide hydrogen chloride salt]",–,–,32 fold,25,–
"NC[C@H]1CN[C@H](CNC(=O)c2[nH]c3ccccc3c2-c2ccc(F)cc2)[C@H]1O [Example 23, N-(((2R,3S,4S)-4-(aminomethyl)-3-hydroxypyrrolidin-2-yl)methyl)-3-(4-fluorophenyl)-1H-indole-2-carboxamide hydrogen chloride salt]",2,16,8 fold,> 100,–
"NC[C@H]1CN[C@H](CNC(=O)c2[nH]c3ccc(F)cc3c2-c2ccccc2)[C@H]1O [Example 24, N-(((2R,3S,4S)-4-(aminomethyl)-3-hydroxypyrrolidin-2-yl)methyl)-5-fluoro-3-phenyl-1H-indole-2-carboxamide hydrogen chloride salt]",–,–,16 fold,> 100,–
"NC[C@H]1CN[C@H](CNC(=O)c2[nH]c3ccccc3c2-c2ccc(F)cc2)C1=O [Example 25, N-(((2R,4S)-4-(aminomethyl)-3-oxopyrrolidin-2-yl)methyl)-3-(4-fluorophenyl)-1H-indole-2-carboxamide hydrogen chloride salt]",1,1,1 (1) fold,> 100,–
"NC[C@H]1CN[C@H](CNC(=O)c2[nH]c3ccccc3c2-c2ccc(F)cc2)[C@@H]1O [Example 26, N-(((2R,3R,4S)-4-(aminomethyl)-3-hydroxypyrrolidin-2-yl)methyl)-3-(4-fluorophenyl)-1H-indole-2-carboxamide hydrogen chloride salt]",2,32,16 fold,> 100,–
"NCC1(O)CN[C@H](CNC(=O)c2[nH]c3ccc(F)cc3c2-c2ccccc2Cl)C1 (stereo partly drawn) [Example 27, N-(((2S)-4-(aminomethyl)-4-hydroxypyrrolidin-2-yl)methyl)-3-(2-chlorophenyl)-5-fluoro-1H-indole-2-carboxamide hydrogen chloride salt]",–,–,1 (1) fold,> 100,–
"NCCC(O)[C@@H](N)CNC(=O)c1cc2cccc(-c3ccc(F)cc3)c2[nH]1 (stereo partly drawn) [Example 28, N-((2S)-2,5-diamino-3-hydroxypentyl)-7-(4-fluorophenyl)-1H-indole-2-carboxamide hydrogen chloride salt]",–,–,16 fold,50,–
"NCC(O)C[C@H](N)CNC(=O)c1[nH]c2ccccc2c1Sc1cccc(F)c1 (stereo partly drawn) [Example 29, N-((2S)-2,5-diamino-4-hydroxypentyl)-3-((3-fluorophenyl)thio)-1H-indole-2-carboxamide hydrogen chloride salt]",2,64,32 fold,200,–
"NC[C@@H](O)C[C@H](N)CNC(=O)c1cc2ccc(-c3ccc(F)cc3)cc2[nH]1 [Example 30, 6-(4-fluorophenyl)-N-((2S)-2,5-diamino-4-hydroxypentyl)-1H-indole-2-carboxamide hydrogen chloride salt]",–,–,16 fold,50,–
"NCCOC[C@H](N)CNC(=O)c1cc2ccc(-c3ccc(F)cc3)cc2[nH]1 [Example 31, (R)—N-(2-amino-3-(2-aminoethoxy)propyl)-6-(4-fluorophenyl)-1H-indole-2-carboxamide hydrogen chloride salt]",4,32,8 fold,> 200,–
"NCCOC[C@H](N)CNC(=O)c1cc2ccc(-c3ccccc3)cc2[nH]1 [Example 32, (R)—N-(2-amino-3-(2-aminoethoxy)propyl)-6-phenyl-1H-indole-2-carboxamide hydrogen chloride salt]",–,–,4 fold,> 200,–
"Cc1c(C(=O)NC[C@@H](N)COCCN)[nH]c2cccc(-c3ccc(F)cc3)c12 [Example 33, (R)—N-(2-amino-3-(2-aminoethoxy)propyl)-4-(4-fluorophenyl)-3-methyl-1H-indole-2-carboxamide hydrogen chloride salt]",–,128,32 fold,100,–
"NCCC[C@H](N)COC[C@H](N)CNC(=O)c1[nH]c2ccccc2c1-c1ccc(F)cc1 [Example 34, N—((R)-2-amino-3-(((S)-2,5-diaminopentyl)oxy)propyl)-3-(4-fluorophenyl)-1H-indole-2-carboxamide hydrogen chloride salt]",–,32,8 fold,> 200,–
"NCC(O)[C@H](N)CNC(=O)c1[nH]c2ccccc2c1-c1ccc(F)cc1 (stereo partly drawn) [Example 35, N-((2R)-2,4-diamino-3-hydroxybutyl)-3-(4-fluorophenyl)-1H-indole-2-carboxamide]",–,–,4 fold,–,200
"NCC(O)[C@H](N)CNC(=O)c1[nH]c2ccccc2c1C1CCCC1 (stereo partly drawn) [Example 36, 3-cyclopentyl-N-((2R)-2,4-diamino-3-hydroxybutyl)-1H-indole-2-carboxamide]",2,32,8 fold,–,100
